Key:
Type in all cases: cell-based, mouse
H3K27me3 = experiment: Western blotting of H3K27me3
Experimental: Equal amounts of total protein (50 μg) from each sample were separated in a 10% SDS-PAGE gel and transferred to a PVDF membrane at 120 V for 2 hours at room temperature. The blot was blocked with 5% nonfat dry milk suspended in 1×TBS (25 mM Tris, 137 mM NaCl, and 2.7 mM KCl) for 1 hour. Membranes were incubated sequentially with primary antibodies and secondary antibodies. Bands were scanned using a densitometer (Bio-Rad) and quantified using the Quantity One 4.6.3 software (Bio-Rad).

[1] = test system: BAM-transduced fibroblasts; experiment: iN reprogramming on PAAm gels of varying stiffness; details: pre-treated for 24 hours before adding Dox
Excerpt: To determine the role of matrix stiffness on iN reprogramming, adult mouse fibroblasts were transduced with doxycycline-inducible lentiviruses containing the three reprogramming factors Ascl1, Brn2 and Myt1l (BAM), and then seeded onto polyacrylamide (PAAm) gels of various stiffness (40 kPa, 20 kPa, and 1 kPa) coated with fibronectin. Glass coverslips coated with the same ECM protein were used as a rigid glass surface control (FIG. 15a). As shown in FIG. 15b-c, both the cell area and nuclear volume of fibroblasts decreased as the stiffness of the PAAm gel decreased. […] After 7 days, cultures were fixed and immunostained for neuronal marker, neuron-specific class III β-tubulin (Tubb3) in order to identify iN cells and determine the reprogramming efficiency (FIG. 15a). […] To determine whether matrix stiffness could modulate the activation of endogenous Ascl1, fibroblasts were transduced with an Ascl1 promoter driven-GFP construct and reprogrammed for 2 days.

[2] = test system: histone acetyltransferase (HAT); experiment: HAT activity in fibroblasts on PAAm gels of varying stiffness; details: glass and gels of various stiffness, inhibitor for 24 hours
Excerpt: FIG. 16. Matrix stiffness modulates histone acetyltransferase (HAT) activity and histone acetylation. (a) Immunofluorescent images of AcH3 in non-transduced fibroblasts cultured on glass and PAAm gels of various stiffness for 2 days. Scale bar, 10 μm. (b) Quantification of AcH3 intensity in cells cultured on glass and PAAm gels of various stiffness (based on experiments in a) (n>40). […] (e) Volcano plot showing differential accessible regions. Red dots indicate regions with increased chromatin accessibility and blue dots regions with decreased accessibility. (f) Heatmap representation of differentially accessible regions that overlap with Ascl1 ChIP-seq peaks (GSE43916: SRX323557). Each row represents a differential region; each column is one biological replicate of the indicated condition. (g) Quantification of HAT activity in fibroblasts cultured on glass and PAAm gels of various stiffness for 2 days, as determined using the Epigenase HAT activity kit (n=6). (h) Quantification of HAT activity in fibroblasts cultured on glass and PA gels of various stiffness for 1 day followed by treatment with vehicle control (DMSO) or a HAT inhibitor (anacardic acid, AA) for 24 hours (n=4). […] In b-i, statistical significance was determined by a one-way ANOVA and Tukey's multiple comparison test (N.S.: Not significant., *p<0.05, **p<0.01, ***p<0.001). […]

Row | Structure (SMILES) | H3K27me3 level (H3K27me3) | stiffness-dependent reprogramming efficiency under HAT inhibitor [1] | stiffness-dependent HAT activity under HAT inhibitor [2]
1 | CS(=O)(=O)c1ccc(-c2cnc(NCc3ccco3)n3cnnc23)cc1 [EED226] | inhibited | – | –
2 | CCCCCCCCCCCCCCCc1cccc(O)c1C(=O)O [anacardic acid] | – | inhibited the biphasic enhancement of HAT activity and the reprogramming efficiency | inhibited the biphasic enhancement of HAT activity and the reprogramming efficiency

Source: patent US20230381774A1, “MICROFLUDIC LAB-ON-CHIP DEVICE, MATRIX, SMALL MOLECULES AND THREE-DIMENSIONAL SPHEROIDS FOR CELL REPROGRAMMING” (The Regents of the University of California, priority 2022, published 2023)
